Laboratory results reported in US20110301211A1, “ANTAGONISTS OF LYSOPHOSPHATIDIC ACID RECEPTORS” (priority 2008, published 2011).
Each block holds one molecule with its values, some of them ahead of it.

How the values were obtained:
human LPA1 = target: T1, human LPA1 (Homo sapiens, UniProt Q92633); test: HLPA1 Ca Flux assay (LPA1 calcium flux assay); assay type: cell-based; conditions: CHO cells expressing human LPA1, 10 nM LPA
T1 construct: the full-length cDNA for human LPA1 was obtained by PCR of the reverse transcription reaction; expressed in transfected cells
T1 sequence (Q92633 whole entry): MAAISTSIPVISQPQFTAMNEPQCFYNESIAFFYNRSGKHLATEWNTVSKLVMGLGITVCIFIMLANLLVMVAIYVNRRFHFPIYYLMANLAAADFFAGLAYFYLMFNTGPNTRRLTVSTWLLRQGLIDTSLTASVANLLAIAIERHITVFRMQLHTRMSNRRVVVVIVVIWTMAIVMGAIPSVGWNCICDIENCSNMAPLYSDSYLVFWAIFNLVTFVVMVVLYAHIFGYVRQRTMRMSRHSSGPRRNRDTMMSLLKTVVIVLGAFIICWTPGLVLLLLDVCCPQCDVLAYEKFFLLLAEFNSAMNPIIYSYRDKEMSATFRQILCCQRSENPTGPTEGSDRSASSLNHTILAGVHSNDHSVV
Experimental: A 1.1 kb cDNA encoding the human LPA1 receptor was cloned from human lung. Human lung RNA (Clontech Laboratories, Inc. USA) was reverse transcribed using the RETROscript kit (Ambion, Inc.) and the full-length cDNA for human LPA1 was obtained by PCR of the reverse transcription reaction. The nucleotide sequence of the cloned human LPA1 was determined by sequencing and confirmed to be identical to the published human LPA1 sequence (An et al. Biochem. Biophys. Res. Commun. 231:619 (1997). The cDNA was cloned into the pcDNA5/FRT expression plasmid and transfected in CHO cells using lipofectamine 2000 (Invitrogen Corp., USA). Clones stably expressing human LPA1 were selected using hygromycin and identified as cells that show Ca-influx in response to LPA.
(§1) Human LPA1 or LPA3 expressing CHO cells are seeded at 20,000-45,000 cells per well in a 96-well poly-D-lysine coated plate one or two days before the assay. Prior to the assay, the cells are washed once with PBS and then cultured in serum-free media overnight. On the day of the assay, a calcium indicator dye (Calcium 4, Molecular Devices) in assay buffer (HBSS with Ca^2+ and Mg^2+ and containing 20 mM Hepes and 0.3% fatty-acid free human serum albumin) is added to each well and incubation continued for 1 hour at 37° C. 10 μl of test compounds in 2.5% DMSO are added to the cells and incubation continued at room temperature for 30 minutes. Cells are the stimulated by the addition of 10 nM LPA and intracellular Ca^2+ measured using the Flexstation 3 (Molecular Devices). IC50s are determined using Graphpad prism analysis of drug titration curves.

Female C57BL/6 mice [1] = test: Mouse carbon tetrachloride (CCl4)-induced liver fibrosis model; assay type: in vivo; conditions: for collagen deposition in the liver: as compared to the untreated group
Experimental: Female C57BL/6 mice (Harlan, 20-25 g) housed 4/cage are given free access to food and water and allowed to acclimate for at least 7 days prior to test initiation. After the habituation phase, mice receive CCl4 (0.5-1.0 ml/kg body weight) diluted in corn oil vehicle (100 μL volume) via i.p. injection twice a week for 4-6 weeks. (Higazi, A. A. et al., Clin Exp Immunol. 2008 April; 152(1):163-73. Epub 2008 Feb. 14.). Control mice receive an equivalent volume of corn oil vehicle only. Test compound or vehicle is delivered po, ip or sc daily. At the end of the study (4-6 weeks after first i.p. injection of CCl4), mice are sacrificed using inhaled isoflurane and blood is drawn via cardiac puncture for subsequent analysis of ALT/AST levels. The liver is harvested, and one half of the liver is frozen at −80° C. and the other half is fixed in 10% neutral buffered formalin for histological assessment of liver fibrosis using light microscopy (10× magnification). Liver tissue homogenates are analyzed for collagen levels using Sircol (Biocolor Ltd, UK). Fixed Liver tissue is stained using hematoxylin and eosin (H&E) and trichrome and liver fibrosis is determined by quantitative, computer-assisted densitometry of collagen in liver tissue sections using light microscopy. Plasma and liver tissue lysates are also analyzed for concentrations of inflammatory, pro-fibrotic and tissue injury biomarkers including transforming growth factor β1, hyaluronic acid, tissue inhibitor of metalloproteinase-1, matrix matelloproteinase-7, connective tissue growth factor and lactate dehydrogenase activity, using commercially available ELISA. The resulting data are plotted using Graphpad prism and statistical differences between groups determined.

Female CD-1 mice = test: Bleomycin-induced lung fibrosis model in mice; assay type: in vivo; conditions: acute setting (3 day)
Excerpt: Female CD-1 mice (Harlan, 25-30 g) are housed 4 per cage, given free access to food and water and allowed to acclimate for at least 7 days prior to test initiation. After the habituation phase, mice are lightly anesthetized with isoflurane (5% in 100% O2) and administered with bleomycin sulfate (0.01-5 U/kg, Henry Schein) via intratracheal instillation (Cuzzocrea S et al. Am J Physiol Lung Cell Mol. Physiol. 2007 May; 292(5):L1095-104. Epub 2007 Jan. 12.). Mice are returned to their cages and monitored daily for the duration of the experiment. Test compound or vehicle is delivered po, ip or sc daily. The route and frequency of dosing is based on previously determined pharmacokinetic properties. […] BALF is analyzed for concentrations of inflammatory, pro-fibrotic and tissue injury biomarkers including transforming growth factor β1, hyaluronic acid, tissue inhibitor of metalloproteinase-1, matrix matelloproteinase-7, connective tissue growth factor and lactate dehydrogenase activity, using commercially available ELISA. […] Total cell counts are then obtained using a Hemavet hematology system (Drew Scientific, Wayne, Pa.) and differential cells counts are determined using Shandon cytospin (Thermo Scientific, Waltham, Mass.). […] The data are plotted using Graphpad prism and statistical differences between groups determined.

Female C57BL/6 mice [2] = test: Mouse unilateral ureteral obstruction kidney fibrosis model; assay type: in vivo; conditions: as compared to the untreated group
Experimental: Female C57BL/6 mice (Harlan, 20-25 g) housed 4/cage will be given free access to food and water and allowed to acclimate for at least 7 days prior to test initiation. After the habituation phase, mice undergo unilateral ureteral obstruction (UUO) surgery or sham to left kidney. Briefly, a longitudinal, upper left incision is performed to expose the left kidney. The renal artery is located and 6/0 silk thread is passed between the artery and the ureter. The thread is looped around the ureter and knotted 3 times insuring full ligation of ureter. The kidney is returned to abdomen, the abdominal muscle is sutured and the skin is stapled closed. Mice are returned to their cages and monitored daily for the duration of the experiment. Test compound or vehicle is delivered po, ip or sc daily. The route and frequency of dosing is based on previously determined pharmacokinetic properties. All animals are sacrificed using inhaled isoflurane 4, 8 or 14 days after UUO surgery. […] Kidney tissue homogenates are analyzed for collagen levels using Sircol (Biocolor Ltd, UK). Fixed kidney tissue is also stained using hematoxylin and eosin (H&E) and trichrome and kidney fibrosis is determined by quantitative, computer-assisted densitometry of collagen in […] tissue sections using light microscopy. […] The resulting data are plotted using Graphpad prism and statistical differences between groups determined.

[3] = tested on: Unilateral ureteral obstruction (UUO; animal model of renal fibrosis) mice; conditions: LPA1 (−/−) mice: renal fibrosis significantly attenuated; cited from earlier work
[4] = cited from earlier work
[5] = tested on: highly peritoneal metastatic pancreatic cancer cell line; conditions: cited from earlier work
[6] = tested on: pancreatic cancer cell lines; conditions: cited from earlier work
human LPA3 = target: T2, human LPA3 (Homo sapiens, UniProt Q9UBY5); test: HLPA3 Ca Flux assay (LPA3 calcium flux assay); assay type: cell-based; conditions: CHO cells expressing human LPA3, 10 nM LPA
T2 construct: The full-length cDNA fragment for human LPA3 was obtained by PCR from the vector
T2 sequence (Q9UBY5 1-353): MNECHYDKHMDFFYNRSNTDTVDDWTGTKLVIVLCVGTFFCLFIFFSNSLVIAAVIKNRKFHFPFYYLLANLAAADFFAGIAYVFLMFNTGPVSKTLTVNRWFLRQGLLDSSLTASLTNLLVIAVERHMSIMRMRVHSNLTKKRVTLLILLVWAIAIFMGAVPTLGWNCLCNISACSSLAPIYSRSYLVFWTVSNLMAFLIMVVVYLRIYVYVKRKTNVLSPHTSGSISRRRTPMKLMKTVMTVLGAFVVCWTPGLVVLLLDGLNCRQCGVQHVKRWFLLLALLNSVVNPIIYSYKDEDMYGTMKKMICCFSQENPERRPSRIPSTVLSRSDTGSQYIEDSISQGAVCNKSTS
Experimental: A vector containing the human LPA3 receptor cDNA was obtained from the Missouri S&T cDNA Resource Center (www.cdna.org). The full-length cDNA fragment for human LPA3 was obtained by PCR from the vector. The nucleotide sequence of the cloned human LPA3 was determined by sequencing and confirmed to be identical to the published human LPA3 sequence (NCBI accession number NM 012152). The cDNA was cloned into the pcDNA5/FRT expression plasmid and transfected in CHO cells using lipofectamine 2000 (Invitrogen Corp., USA). Clones stably expressing human LPA3 were selected using hygromycin and identified as cells that show Ca-influx in response to LPA.
as §1, with “10 μl of test compounds in 2.5% DMSO are added to the cells and incubation continued at room temperature for 30 minutes.” left out

SMILES: Cc1noc(-c2ccc(-c3ccc(CC(=O)O)cc3)cc2)c1NC(=O)O[C@H](C)c1ccccc1 [Compound 37]
- collagen deposition in the liver (Female C57BL/6 mice [1]): significantly reduced
- tissue inhibitor of metalloproteinase-1 (TIMP-1; pro-fibrotic marker) concentrations in BALF (Female CD-1 mice): reduced
- reduction of kidney fibrosis (Female C57BL/6 mice [2]): 55%

SMILES: Cc1noc(-c2ccc(CSCCC(=O)O)cc2)c1NC(=O)OC(C)c1ccccc1Cl (centres unmarked) [Ki16425]
- development of renal fibrosis in UUO mice [3]: closely resembled the LPA1 (−/−) mice
- metastasis to bone in vivo [4]: inhibit
- LPA-induced and ascites-induced invasion activity [5]: blocked
- in vitro migration in response to LPA and peritoneal fluid (ascites) from pancreatic cancer patients [6]: effectively blocked

SMILES: Cc1noc(-c2ccc(-c3ccc(CC(=O)O)cc3)cc2)c1NC(=O)O[C@H](C)c1ccccc1Cl [Compound 27, (4′-{4-[(R)-1-(2-Chloro-phenyl)-ethoxycarbonylamino]-3-methyl-isoxazol-5-yl}-biphenyl-4-yl)-acetic acid]
- effect on collagen deposition compared with pirfenidone (Female C57BL/6 mice [1]; 30 mg/kg, po, qd): same effect on collagen deposition as pirfenidone
- collagen deposition in the liver (Female C57BL/6 mice [1]): significantly reduced
- tissue inhibitor of metalloproteinase-1 (TIMP-1; pro-fibrotic marker) concentrations in BALF (Female CD-1 mice): significantly reduced
- reduction of kidney fibrosis (Female C57BL/6 mice [2]): at least 20%

SMILES: Cc1noc(-c2ccc(-c3ccc(CC(=O)NCCS(=O)(=O)O)cc3)cc2)c1NC(=O)O[C@H](C)c1ccccc1 [Compound 67, 2-(2-{4′-[3-Methyl-4-((R)-1-phenyl-ethoxycarbonylamino)-isoxazol-5-yl]-biphenyl-4-yl}-acetylamino)-ethanesulfonic Acid]
- IC50 (human LPA1): < 0.3 µM

The next lines start with the values.

- IC50 (human LPA1): 1 to 50 µM
SMILES: COc1ccc(CC(=O)O)cc1-c1ccc(-c2onc(C)c2NC(=O)OC(C)c2ccccc2Cl)cc1 (centres unmarked) [Compound 7, (4′-{4-[1-(2-Chloro-phenyl)-ethoxycarbonylamino]-3-methyl-isoxazol-5-yl}-6-methoxy-biphenyl-3-yl)-acetic Acid]

- IC50 (human LPA1): 1 to 50 µM
SMILES: COc1ccc(C(C)OC(=O)Nc2c(C)noc2-c2ccc(-c3ccc(CC(=O)O)cc3)cc2)c(F)c1 (centres unmarked) [Compound 40, (4′-{4-[1-(2-Fluoro-4-methoxy-phenyl)-ethoxycarbonylamino]-3-methyl-isoxazol-5-yl}-biphenyl-4-yl)-acetic acid]

- IC50 (human LPA3): 0.3 to 1 µM
SMILES: Cc1noc(-c2ccc(-c3cccc(CC(=O)O)c3)cc2)c1NC(=O)OC(C)c1ccccc1Cl (centres unmarked) [Compound 12, (4′-{4-[1-(2-Chloro-phenyl)-ethoxycarbonylamino]-3-methyl-isoxazol-5-yl}-biphenyl-3-yl)-acetic acid]

- IC50 (human LPA3): 1 to 50 µM
SMILES: COc1ccccc1C(C)OC(=O)Nc1c(C)noc1-c1ccc(-c2ccc(CC(=O)O)cc2)cc1 (centres unmarked) [Compound 6, (4′-{4-[1-(2-Methoxy-phenyl)-ethoxycarbonylamino]-3-methyl-isoxazol-5-yl}-biphenyl-4-yl)-acetic Acid]

- IC50 (human LPA1): 0.3 to 1 µM
SMILES: Cc1noc(-c2ccc(-c3cccc(CC(=O)O)c3)cc2)c1NC(=O)O[C@H](C)c1ccccc1 [Compound 43, {4′-[3-Methyl-4-((R)-1-phenyl-ethoxycarbonylamino)-isoxazol-5-yl]-biphenyl-3-yl}-acetic Acid]
